Data as given in US20250215010A1, “DIAZABICYCLOOCTANE DERIVATIVES USEFUL AS MATRIX METALLOPROTEINASE INHIBITORS” (VASA THERAPEUTICS SPOLKA Z OGRANICZONA ODPOWIEDZIALNOSCIA, priority 2022, published 2025).

Key:
Format in all cases: biochemical
MMP2 = target: T1, MMP2 (Homo sapiens, UniProt P08253); experiment: MMP-2 colorimetric inhibition assay (Enzo kit BML-AK408); details: thiopeptide substrate, absorbance 415 nm; read-out: MMP 2 IC50 class
T1 sequence (P08253 110-660): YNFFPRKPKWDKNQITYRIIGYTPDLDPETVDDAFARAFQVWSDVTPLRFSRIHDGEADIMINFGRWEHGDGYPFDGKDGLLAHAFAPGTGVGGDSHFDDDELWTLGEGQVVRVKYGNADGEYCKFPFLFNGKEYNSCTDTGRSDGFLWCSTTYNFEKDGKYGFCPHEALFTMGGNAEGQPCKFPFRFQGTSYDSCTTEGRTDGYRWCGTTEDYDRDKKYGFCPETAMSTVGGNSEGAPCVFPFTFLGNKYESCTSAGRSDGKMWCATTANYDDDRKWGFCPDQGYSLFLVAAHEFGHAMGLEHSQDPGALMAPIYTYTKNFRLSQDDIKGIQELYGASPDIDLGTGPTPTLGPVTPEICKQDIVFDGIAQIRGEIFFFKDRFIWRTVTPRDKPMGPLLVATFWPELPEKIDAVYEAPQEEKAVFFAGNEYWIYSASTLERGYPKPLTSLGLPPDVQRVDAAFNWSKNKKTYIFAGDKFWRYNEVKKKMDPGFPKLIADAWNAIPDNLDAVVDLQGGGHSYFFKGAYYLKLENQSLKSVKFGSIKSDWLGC
How it was run: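 Cleavage of the thiopeptide Ac-PLG-[2-mercapto-4-methylpentanoyl]-LG-OC2H5 releases a sulfhydryl that reacts with DTNB, read at 415 nm per the kit protocol. IC50 values (nM) come from inhibition curves of normalized data.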

MMP13 = target: T2, MMP13 (Homo sapiens, UniProt P45452); experiment: MMP-13 colorimetric inhibition assay (Enzo kit BML-AK412); details: thiopeptide substrate, absorbance 415 nm; read-out: MMP 13 IC50 class
T2 construct: purchased Enzo Life Sciences, Inc. BML-AK412
How it was run: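 Thiopeptide chromogenic substrate (Ac-PLG-[2-mercapto-4-methylpentanoyl]-LG-OC2H5); MMP-13 hydrolysis of the thioester yields a thiol that reacts with DTNB, read at 415 nm. IC50 values (nM) derived from inhibition curves of normalized data.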

MMP9 = MMP9 (Homo sapiens, UniProt P14780); experiment: MMP-9 colorimetric inhibition assay (Enzo kit BML-AK410); details: thiopeptide substrate, absorbance 415 nm; read-out: MMP 9 IC50 class
Chain of MMP9 (P14780 94-707): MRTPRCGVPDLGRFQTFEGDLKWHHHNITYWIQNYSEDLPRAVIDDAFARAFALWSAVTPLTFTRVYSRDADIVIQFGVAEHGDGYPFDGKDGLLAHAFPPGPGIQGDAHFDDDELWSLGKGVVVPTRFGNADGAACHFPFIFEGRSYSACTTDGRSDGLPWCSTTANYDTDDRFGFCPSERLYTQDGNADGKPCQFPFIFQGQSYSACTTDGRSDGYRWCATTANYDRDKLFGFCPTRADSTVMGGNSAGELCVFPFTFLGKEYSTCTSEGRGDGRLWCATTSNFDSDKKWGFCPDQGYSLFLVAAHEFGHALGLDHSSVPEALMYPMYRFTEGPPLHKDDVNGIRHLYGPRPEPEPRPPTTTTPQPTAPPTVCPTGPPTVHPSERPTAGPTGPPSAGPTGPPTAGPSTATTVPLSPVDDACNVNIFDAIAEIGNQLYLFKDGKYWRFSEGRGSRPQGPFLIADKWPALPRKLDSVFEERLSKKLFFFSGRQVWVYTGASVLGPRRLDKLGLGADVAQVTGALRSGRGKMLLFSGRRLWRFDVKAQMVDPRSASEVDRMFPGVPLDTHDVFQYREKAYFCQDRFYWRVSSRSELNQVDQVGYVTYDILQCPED
How it was run: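 Colorimetric thioester-substrate assay: hydrolysis of Ac-PLG-[2-mercapto-4-methylpentanoyl]-LG-OC2H5 frees a thiol that reacts with DTNB, read at 415 nm. Run per kit protocol. IC50 (nM) taken from inhibition curves of normalized values.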

ADAM10 = target: T3, ADAM10 (Homo sapiens, UniProt O14672); experiment: SensoLyte 520 ADAM10 fluorometric activity assay (AnaSpec AS-72226); details: FRET peptide substrate, ex/em 495/520 nm; read-out: ADAM 10 IC50 class
T3 construct: purchased AnaSpec, Inc. AS-72226
T3 sequence (O14672 214-748): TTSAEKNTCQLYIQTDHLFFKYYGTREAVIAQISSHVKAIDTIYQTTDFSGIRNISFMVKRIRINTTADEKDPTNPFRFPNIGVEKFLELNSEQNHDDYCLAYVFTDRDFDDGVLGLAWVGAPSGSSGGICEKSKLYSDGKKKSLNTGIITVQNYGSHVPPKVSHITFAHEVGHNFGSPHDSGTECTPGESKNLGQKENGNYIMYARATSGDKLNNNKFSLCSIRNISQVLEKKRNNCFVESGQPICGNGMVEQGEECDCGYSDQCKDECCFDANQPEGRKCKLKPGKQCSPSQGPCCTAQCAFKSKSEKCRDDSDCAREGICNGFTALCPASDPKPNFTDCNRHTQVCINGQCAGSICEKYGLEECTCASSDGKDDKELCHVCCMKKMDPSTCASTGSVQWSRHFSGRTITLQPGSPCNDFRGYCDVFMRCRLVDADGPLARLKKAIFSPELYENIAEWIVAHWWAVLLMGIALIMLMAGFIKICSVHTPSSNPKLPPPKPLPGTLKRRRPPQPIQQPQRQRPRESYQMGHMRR
Procedure: The inhibitory activities of the compounds of the invention were assessed in 96-well microplate format using MMP1, MMP2, MMP9 and MMP13 colorimetric assay kits and TACE fluorometric assay kit from Enzo Life Sciences, Inc. The inhibitory effect of the compounds of the invention on ADAM10 activity were evaluated in 96-well microplate format using fluorometric assay from AnaSpec, Inc.
SensoLyte® 520 ADAM10 Activity Assay Kit (catalog #AS-72226) is a complete assay system designed to screen ADAM10 inhibitors using FRET-based peptide substrate containing the 5-FAM/QXL™ 520 fluorophore/quencher pair. The fluorescence of 5-FAM is quenched by QXL™ 520 and recovered upon cleavage of the peptide by active ADAM10.
The inhibitory activity of the compounds of the invention against ADAM10 was tested according to the manufacturer's assay protocol and the fluorescence was monitored at excitation/emission wavelengths=495 nm/520 nm using Tecan Infinite® 200 Pro F Nano^+ microplate reader.
The normalized values were analyzed using GraphPadPrism 9 for Windows (GraphPad Software, San Diego, CA, USA) software by plotting inhibition curves and determining the IC50 values (in nM).

ADAM17 (TACE) = ADAM17 (TACE) (Homo sapiens, UniProt P78536); experiment: TACE fluorometric inhibition assay (Enzo kit BML-AK310); details: quenched fluorogenic peptide, ex/em 320/420 nm; read-out: TACE IC50 class
Chain of ADAM17 (TACE) (P78536 215-477 limits assumed): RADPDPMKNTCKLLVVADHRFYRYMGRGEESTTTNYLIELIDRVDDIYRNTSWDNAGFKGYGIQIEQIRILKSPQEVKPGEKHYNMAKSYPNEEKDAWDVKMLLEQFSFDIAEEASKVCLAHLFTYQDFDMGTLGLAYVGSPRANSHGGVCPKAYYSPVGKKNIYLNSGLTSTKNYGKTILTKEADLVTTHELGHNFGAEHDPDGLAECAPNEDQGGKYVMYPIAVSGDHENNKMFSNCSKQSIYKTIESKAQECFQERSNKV
How it was run: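 Kit-based TACE assay run per manufacturer's protocol, using quenched fluorogenic peptide Mca-PLAQAV-Dpa-RSSSR-NH2 whose cleavage raises Mca fluorescence. Signal read at ex/em 320/420 nm; IC50 (nM) derived from inhibition curves of normalized values.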

MMP1 = target: T4, MMP1 (Homo sapiens, UniProt P03956); experiment: MMP-1 colorimetric inhibition assay (Enzo kit BML-AK404); details: thiopeptide substrate, absorbance 415 nm; read-out: MMP 1 IC50 class
T4 sequence (P03956 100-269 limits assumed): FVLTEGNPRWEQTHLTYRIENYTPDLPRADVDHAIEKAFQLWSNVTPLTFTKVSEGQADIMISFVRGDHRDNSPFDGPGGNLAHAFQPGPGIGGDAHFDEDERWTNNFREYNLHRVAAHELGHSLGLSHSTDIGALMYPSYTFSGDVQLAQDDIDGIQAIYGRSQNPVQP
How it was run: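 Colorimetric kit run per manufacturer protocol. MMP-1 cleaves a thiopeptide substrate (Ac-PLG-[2-mercapto-4-methylpentanoyl]-LG-OC2H5); released thiol reacts with DTNB, monitored at 415 nm. IC50 (nM) from inhibition curves of normalized values.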

## CC(C)C(=O)N1[C@@H]2CC[C@H]1[C@H](C(=O)NO)N(S(=O)(=O)c1ccc(Oc3ccc(OC(F)(F)F)cc3)nc1)C2 [Example 56, (1S,2R,5R)-N-hydroxy-8-isobutyry1-3-((6-(4-(trifluoro-methoxy)phenoxy)-pyridin-3-yl)-sulfonyl)-3,8-diazabicyclo-[3.2.1]octane-2-carboxamide]
MMP2
  IC50: < 50 nM
MMP13
  IC50: < 50 nM
MMP9
  IC50: < 50 nM
ADAM10
  IC50: > 10000 nM
ADAM17 (TACE)
  IC50: 1000 to 10000 nM
MMP1
  IC50: > 10000 nM

## COCCOC(=O)N1[C@@H]2CC[C@H]1[C@H](C(=O)NO)N(S(=O)(=O)c1ccc(Oc3cnn(-c4ccc(F)cc4)c3)nc1)C2 [Example 40, 2-methoxyethyl (1S,2R,5R)-3-((6-((1-(4-fluorophenyl)-1H-pyrazol-4-yl)oxy)pyridin-3-yl)sulfonyl)-2-(hydroxycarbamoyl)-3,8-diazabicyclo-[3.2.1]octane-8-carboxylate]
MMP2
  IC50: < 50 nM
MMP13
  IC50: < 50 nM
MMP9
  IC50: < 50 nM
ADAM17 (TACE)
  IC50: 50 to 1000 nM
MMP1
  IC50: 50 to 1000 nM

## COCCOC(=O)N1[C@@H]2CC[C@H]1[C@H](C(=O)NO)N(S(=O)(=O)N1CCN(Cc3ccc(OC)cc3)CC1)C2 [Example 77, 2-methoxyethyl (1S,2R,5R)-2-(hydroxycarbamoyl)-3-((4-(4-methoxybenzyl)piperazin-1-yl)sulfonyl)-3,8-diazabicyclo[3.2.1]octane-8-carboxylate]
MMP2
  IC50: 50 to 1000 nM
MMP13
  IC50: 1000 to 10000 nM
MMP9
  IC50: 50 to 1000 nM
ADAM17 (TACE)
  IC50: 1000 to 10000 nM
MMP1
  IC50: > 10000 nM

## COCCOC(=O)N1[C@@H]2CC[C@H]1[C@H](C(=O)NO)N(S(=O)(=O)c1ccc(Oc3cnc(OC)nc3)nc1)C2 [Example 27, 2-methoxyethyl (1S,2R,5R)-2-(hydroxycarbamoyl)-3-((6-((2-methoxy-pyrimidin-5-yl)oxy)-pyridin-3-yl)-sulfonyl)-3,8-diaza-bicyclo[3.2.1]octane-8-carboxylate]
MMP2
  IC50: < 50 nM
MMP13
  IC50: 50 to 1000 nM
MMP9
  IC50: 50 to 1000 nM
ADAM17 (TACE)
  IC50: 1000 to 10000 nM
MMP1
  IC50: > 10000 nM

## CN1CCN(C(=O)N2[C@@H]3CC[C@H]2[C@H](C(=O)NO)N(S(=O)(=O)c2ccc(Oc4ccc(F)cc4)nc2)C3)CC1 [Example 69, (1S,2R,5R)-3-((6-(4-fluorophenoxy)pyridin-3-yl)sulfonyl)-N-hydroxy-8-(4-methyl-piperazine-1-carbonyl)-3,8-diazabicyclo-[3.2.1]octane-2-carboxamide]
MMP2
  IC50: < 50 nM
MMP13
  IC50: 50 to 1000 nM
MMP9
  IC50: 50 to 1000 nM
ADAM17 (TACE)
  IC50: 1000 to 10000 nM
MMP1
  IC50: 1000 to 10000 nM

## COCCOC(=O)N1[C@@H]2CC[C@H]1[C@H](C(=O)NO)N(S(=O)(=O)c1ccc(OC3CCOCC3)nc1)C2 [Example 13, 2-methoxyethyl (1S,2R,5R)-2-(hydroxycarbamoyl)-3-((6-((tetrahydro-2H-pyran-4-yl)oxy)-pyridin-3-yl)sulfonyl)-3,8-diazabicyclo[3.2.1]-octane-8-carboxylate]
MMP2
  IC50: 50 to 1000 nM
MMP13
  IC50: < 50 nM
MMP9
  IC50: < 50 nM
ADAM17 (TACE)
  IC50: 1000 to 10000 nM
MMP1
  IC50: 1000 to 10000 nM

## COCCOC(=O)N1[C@@H]2CC[C@H]1[C@H](C(=O)NO)N(S(=O)(=O)c1ccc(Oc3ccc(C(C)(C)O)cc3)nc1)C2 [Example 26, 2-methoxyethyl (1S,2R,5R)-2-(hydroxycarbamoyl)-3-((6-(4-(2-hydroxy-propan-2-yl)-phenoxy)pyridin-3-yl)sulfonyl)-3,8-diazabicyclo[3.2.1]-octane-8-carboxylate]
MMP2
  IC50: < 50 nM
MMP13
  IC50: 50 to 1000 nM
MMP9
  IC50: 50 to 1000 nM
ADAM17 (TACE)
  IC50: 1000 to 10000 nM
MMP1
  IC50: > 10000 nM

## COCCOC(=O)N1[C@@H]2CC[C@H]1[C@H](C(=O)NO)N(S(=O)(=O)c1ccc(Oc3ccc(OCF)cc3)nc1)C2 [Example 43, 2-methoxyethyl (1S,2R,5R)-3-((6-(4-(fluoromethoxy)phenoxy)pyridin-3-yl)sulfonyl)-2-(hydroxycarbamoyl)-3,8-diazabicyclo[3.2.1]octane-8-carboxylate]
MMP2
  IC50: < 50 nM
MMP13
  IC50: < 50 nM
MMP9
  IC50: < 50 nM
ADAM17 (TACE)
  IC50: 1000 to 10000 nM
MMP1
  IC50: 1000 to 10000 nM

## COCCOC(=O)N1[C@@H]2CC[C@H]1[C@H](C(=O)NO)N(S(=O)(=O)c1ccc(Oc3nc4ccccc4o3)c(F)c1)C2 [Example 79, 2-methoxyethyl (1S,2R,5R)-3-((4-(benzo[d]oxazol-2-yloxy)-3-fluorophenyl)sulfonyl)-2-(hydroxycarbamoyl)-3,8-diazabicyclo[3.2.1]octane-8-carboxylate]
MMP2
  IC50: 50 to 1000 nM
MMP13
  IC50: 50 to 1000 nM
MMP9
  IC50: 1000 to 10000 nM
ADAM17 (TACE)
  IC50: 1000 to 10000 nM
MMP1
  IC50: > 10000 nM

## COCCOC(=O)N1[C@@H]2CC[C@H]1[C@H](C(=O)NO)N(S(=O)(=O)c1cc(F)c(Oc3cnn(C)c3)c(F)c1)C2 [Example 42, 2-methoxyethyl (1S,2R,5R)-3-((3,5-difluoro-4-((1-methyl-1H-pyrazol-4-yl)oxy)phenyl)sulfonyl)-2-(hydroxycarbamoyl)-3,8-diazabicyclo[3.2.1]octane-8-carboxylate]
MMP2
  IC50: 50 to 1000 nM
MMP13
  IC50: 50 to 1000 nM
MMP9
  IC50: 50 to 1000 nM
ADAM17 (TACE)
  IC50: 50 to 1000 nM
MMP1
  IC50: 1000 to 10000 nM

## COCCOC(=O)N1[C@@H]2CC[C@H]1[C@H](C(=O)NO)N(S(=O)(=O)c1ccc(Oc3nc4ccc(Cl)cc4o3)c(F)c1)C2 [Example 80, 2-methoxyethyl (1S,2R,5R)-3-((4-((6-chlorobenzo[d]-oxazol-2-yl)oxy)-3-fluorophenyl)-sulfonyl)-2-(hydroxycarbamoyl)-3,8-diazabicyclo-[3.2.1]octane-8-carboxylate]
MMP2
  IC50: 1000 to 10000 nM
MMP13
  IC50: 1000 to 10000 nM
MMP9
  IC50: 1000 to 10000 nM
ADAM17 (TACE)
  IC50: 1000 to 10000 nM
MMP1
  IC50: > 10000 nM
